{"source": "PubChem BioAssay (NCI)", "test_in_all_cases": "inhibition of tumour cell growth, NCI panel, 48 h", "key": {"M14 melanoma": {"system": "M14 melanoma"}, "HCT-15 colon": {"system": "HCT-15 colon"}, "SF-268 CNS": {"system": "SF-268 CNS"}, "OVCAR-3 ovarian": {"system": "OVCAR-3 ovarian"}, "ACHN renal": {"system": "ACHN renal"}, "COLO 205 colon": {"system": "COLO 205 colon"}, "SK-MEL-2 melanoma": {"system": "SK-MEL-2 melanoma"}, "SK-MEL-28 melanoma": {"system": "SK-MEL-28 melanoma"}, "CCRF-CEM leukemia": {"system": "CCRF-CEM leukemia"}, "UO-31 renal": {"system": "UO-31 renal"}}, "note": "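Protocol summary: plate cells (96-well), add compound at 5 concentrations, incubate 48 h, interpolate endpoints linearly. Here, GI50 denotes the concentration required for 50% inhibition of growth. TGI denotes the concentration required for complete inhibition of growth.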", "data": [{"smiles": "Nc1nc(Nc2ccc(OCc3cccc(F)c3)cc2)c2c(n1)[nH]c1ccc(O)cc12", "values": [{"measurement": "GI50", "setting": "M14 melanoma", "result": 2.12, "unit": "µM"}, {"measurement": "TGI", "setting": "M14 melanoma", "result": 4.77, "unit": "µM"}, {"measurement": "GI50", "setting": "HCT-15 colon", "result": 3.61, "unit": "µM"}, {"measurement": "TGI", "setting": "HCT-15 colon", "result": 16.2, "unit": "µM"}, {"measurement": "GI50", "setting": "SF-268 CNS", "result": 3.1, "unit": "µM"}, {"measurement": "TGI", "setting": "SF-268 CNS", "result": 12.2, "unit": "µM"}, {"measurement": "GI50", "setting": "OVCAR-3 ovarian", "result": 1.89, "unit": "µM"}, {"measurement": "TGI", "setting": "OVCAR-3 ovarian", "result": 3.46, "unit": "µM"}, {"measurement": "GI50", "setting": "ACHN renal", "result": 3.16, "unit": "µM"}, {"measurement": "TGI", "setting": "ACHN renal", "result": 12, "unit": "µM"}, {"measurement": "GI50", "setting": "COLO 205 colon", "result": 2.42, "unit": "µM"}, {"measurement": "TGI", "setting": "COLO 205 colon", "result": 5.98, "unit": "µM"}, {"measurement": "GI50", "setting": "SK-MEL-2 melanoma", "result": 2.61, "unit": "µM"}, {"measurement": "TGI", "setting": "SK-MEL-2 melanoma", "result": 7.71, "unit": "µM"}, {"measurement": "GI50", "setting": "SK-MEL-28 melanoma", "result": 2.26, "unit": "µM"}, {"measurement": "TGI", "setting": "SK-MEL-28 melanoma", "result": 5.59, "unit": "µM"}, {"measurement": "GI50", "setting": "CCRF-CEM leukemia", "result": 3.03, "unit": "µM"}, {"measurement": "TGI", "setting": "CCRF-CEM leukemia", "result": 9.62, "unit": "µM"}, {"measurement": "GI50", "setting": "UO-31 renal", "result": 1.75, "unit": "µM"}, {"measurement": "TGI", "setting": "UO-31 renal", "result": 4.12, "unit": "µM"}]}, {"smiles": "O=c1c2cc3c(=O)n(CCc4ccccc4CO)c(=O)c3cc2c(=O)n1CCc1ccccc1CO", "values": [{"measurement": "TGI", "setting": "HCT-15 colon", "result": "> 100", "unit": "µM"}, {"measurement": "TGI", "setting": "SF-268 CNS", "result": "> 100", "unit": "µM"}, {"measurement": "TGI", "setting": "OVCAR-3 ovarian", "result": "> 100", "unit": "µM"}, {"measurement": "TGI", "setting": "ACHN renal", "result": "> 100", "unit": "µM"}, {"measurement": "TGI", "setting": "SK-MEL-2 melanoma", "result": "> 100", "unit": "µM"}, {"measurement": "TGI", "setting": "SK-MEL-28 melanoma", "result": "> 100", "unit": "µM"}, {"measurement": "TGI", "setting": "CCRF-CEM leukemia", "result": "> 100", "unit": "µM"}, {"measurement": "TGI", "setting": "UO-31 renal", "result": "> 100", "unit": "µM"}]}, {"smiles": "c1ccc([P+](Cc2csnn2)(c2ccccc2)c2ccccc2)cc1", "values": [{"measurement": "TGI", "setting": "M14 melanoma", "result": "> 100", "unit": "µM"}, {"measurement": "TGI", "setting": "HCT-15 colon", "result": "> 100", "unit": "µM"}, {"measurement": "TGI", "setting": "SF-268 CNS", "result": "> 100", "unit": "µM"}, {"measurement": "TGI", "setting": "OVCAR-3 ovarian", "result": "> 100", "unit": "µM"}, {"measurement": "TGI", "setting": "ACHN renal", "result": "> 100", "unit": "µM"}, {"measurement": "TGI", "setting": "COLO 205 colon", "result": "> 100", "unit": "µM"}, {"measurement": "TGI", "setting": "SK-MEL-2 melanoma", "result": "> 100", "unit": "µM"}, {"measurement": "TGI", "setting": "SK-MEL-28 melanoma", "result": "> 100", "unit": "µM"}, {"measurement": "TGI", "setting": "CCRF-CEM leukemia", "result": "> 100", "unit": "µM"}, {"measurement": "TGI", "setting": "UO-31 renal", "result": "> 100", "unit": "µM"}]}, {"smiles": "CCOC(=O)c1csc(NC(=O)CCCC#N)n1", "values": [{"measurement": "TGI", "setting": "M14 melanoma", "result": "> 100", "unit": "µM"}, {"measurement": "TGI", "setting": "HCT-15 colon", "result": "> 100", "unit": "µM"}, {"measurement": "TGI", "setting": "OVCAR-3 ovarian", "result": "> 100", "unit": "µM"}, {"measurement": "TGI", "setting": "ACHN renal", "result": "> 100", "unit": "µM"}, {"measurement": "TGI", "setting": "COLO 205 colon", "result": "> 100", "unit": "µM"}, {"measurement": "TGI", "setting": "SK-MEL-2 melanoma", "result": "> 100", "unit": "µM"}, {"measurement": "TGI", "setting": "SK-MEL-28 melanoma", "result": "> 100", "unit": "µM"}, {"measurement": "TGI", "setting": "CCRF-CEM leukemia", "result": "> 100", "unit": "µM"}, {"measurement": "TGI", "setting": "UO-31 renal", "result": "> 100", "unit": "µM"}]}, {"smiles": "CCOC(=O)C1=C(C)NC(=O)N([N+](=O)[O-])C1c1ccccc1C(F)(F)F", "note": "(stereo not given)", "values": [{"measurement": "TGI", "setting": "M14 melanoma", "result": "> 100", "unit": "µM"}, {"measurement": "TGI", "setting": "HCT-15 colon", "result": "> 100", "unit": "µM"}, {"measurement": "TGI", "setting": "SF-268 CNS", "result": "> 100", "unit": "µM"}, {"measurement": "TGI", "setting": "OVCAR-3 ovarian", "result": "> 100", "unit": "µM"}, {"measurement": "TGI", "setting": "ACHN renal", "result": "> 100", "unit": "µM"}, {"measurement": "TGI", "setting": "COLO 205 colon", "result": "> 100", "unit": "µM"}, {"measurement": "TGI", "setting": "SK-MEL-2 melanoma", "result": "> 100", "unit": "µM"}, {"measurement": "TGI", "setting": "SK-MEL-28 melanoma", "result": "> 100", "unit": "µM"}, {"measurement": "TGI", "setting": "CCRF-CEM leukemia", "result": "> 100", "unit": "µM"}, {"measurement": "TGI", "setting": "UO-31 renal", "result": "> 100", "unit": "µM"}]}, {"smiles": "Cc1cc(C)nc(NS(=O)(=O)c2ccc(Nc3c4ccccc4nc4c(C(=O)NCCO)cccc34)cc2)n1", "values": [{"measurement": "TGI", "setting": "M14 melanoma", "result": 65, "unit": "µM"}, {"measurement": "TGI", "setting": "HCT-15 colon", "result": 46, "unit": "µM"}, {"measurement": "TGI", "setting": "SF-268 CNS", "result": 58.6, "unit": "µM"}, {"measurement": "TGI", "setting": "OVCAR-3 ovarian", "result": "> 100", "unit": "µM"}, {"measurement": "TGI", "setting": "ACHN renal", "result": "> 100", "unit": "µM"}, {"measurement": "TGI", "setting": "COLO 205 colon", "result": 31.3, "unit": "µM"}, {"measurement": "TGI", "setting": "SK-MEL-2 melanoma", "result": 35.7, "unit": "µM"}, {"measurement": "TGI", "setting": "SK-MEL-28 melanoma", "result": 41.3, "unit": "µM"}, {"measurement": "TGI", "setting": "CCRF-CEM leukemia", "result": 50.9, "unit": "µM"}]}, {"smiles": "COc1ccc(CN2C(=O)C(=O)N(C)C2=O)c2ccccc12", "values": [{"measurement": "TGI", "setting": "M14 melanoma", "result": "> 10", "unit": "µM"}, {"measurement": "TGI", "setting": "HCT-15 colon", "result": "> 10", "unit": "µM"}, {"measurement": "TGI", "setting": "SF-268 CNS", "result": "> 10", "unit": "µM"}, {"measurement": "TGI", "setting": "OVCAR-3 ovarian", "result": "> 10", "unit": "µM"}, {"measurement": "TGI", "setting": "ACHN renal", "result": "> 10", "unit": "µM"}, {"measurement": "TGI", "setting": "COLO 205 colon", "result": "> 10", "unit": "µM"}, {"measurement": "TGI", "setting": "SK-MEL-2 melanoma", "result": "> 10", "unit": "µM"}, {"measurement": "TGI", "setting": "SK-MEL-28 melanoma", "result": "> 10", "unit": "µM"}, {"measurement": "TGI", "setting": "CCRF-CEM leukemia", "result": "> 10", "unit": "µM"}, {"measurement": "TGI", "setting": "UO-31 renal", "result": "> 10", "unit": "µM"}]}, {"smiles": "O=C(NN1C(=O)CSC1c1ccc(Cl)c(Cl)c1)c1ccncc1", "note": "(stereo not given)", "values": [{"measurement": "TGI", "setting": "M14 melanoma", "result": "> 100", "unit": "µM"}, {"measurement": "TGI", "setting": "HCT-15 colon", "result": "> 100", "unit": "µM"}, {"measurement": "TGI", "setting": "SF-268 CNS", "result": "> 100", "unit": "µM"}, {"measurement": "TGI", "setting": "ACHN renal", "result": "> 100", "unit": "µM"}, {"measurement": "TGI", "setting": "COLO 205 colon", "result": "> 100", "unit": "µM"}, {"measurement": "TGI", "setting": "SK-MEL-2 melanoma", "result": "> 100", "unit": "µM"}, {"measurement": "TGI", "setting": "SK-MEL-28 melanoma", "result": "> 100", "unit": "µM"}, {"measurement": "TGI", "setting": "CCRF-CEM leukemia", "result": "> 100", "unit": "µM"}, {"measurement": "TGI", "setting": "UO-31 renal", "result": "> 100", "unit": "µM"}]}]}
